Results as given in PubChem BioAssay (NCI).
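All cell lines were grown in 96-well plates and treated with compound for 48 hours. The concentration for full growth arrest is given as TGI.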

Tests used:
Assay in all cases: NCI anticancer screen, dose series, 48 h
[1] = tested on: IGROV1 ovarian
[2] = tested on: NCI-H460 lung
[3] = tested on: U251 CNS
[4] = tested on: LOX IMVI melanoma
[5] = tested on: M14 melanoma
[6] = tested on: ACHN renal
[7] = tested on: SF-539 CNS
[8] = tested on: HCC-2998 colon
[9] = tested on: HCT-15 colon
[10] = tested on: NCI/ADR-RES ovarian
[11] = tested on: MDA-MB-435
[12] = tested on: K-562 leukemia
[13] = tested on: SN12C renal
[14] = tested on: SF-268 CNS
[15] = tested on: MDA-MB-231 breast
[16] = tested on: OVCAR-3 ovarian
[17] = tested on: COLO 205 colon
[18] = tested on: PC-3 prostate
[19] = tested on: SNB-75 CNS
[20] = tested on: DU-145 prostate
[21] = tested on: HS 578T breast
[22] = tested on: SK-MEL-28 melanoma
[23] = tested on: OVCAR-8 ovarian
[24] = tested on: CCRF-CEM leukemia
[25] = tested on: CAKI-1 renal
[26] = tested on: A549 NSCLC
[27] = tested on: HCT-116 colon
[28] = tested on: MALME-3M melanoma
[29] = tested on: UACC-62 melanoma
[30] = tested on: HOP-62 NSCLC
[31] = tested on: MCF7 breast
[32] = tested on: UACC-257 melanoma
[33] = tested on: SK-OV-3 ovarian
[34] = tested on: SW-620 colon
[35] = tested on: BT-549 breast
[36] = tested on: A498 renal
[37] = tested on: SNB-19 CNS
[38] = tested on: KM12 colon
[39] = tested on: RPMI-8226 leukemia
[40] = tested on: RXF 393 renal
[41] = tested on: 786-0 renal
[42] = tested on: OVCAR-4 ovarian
[43] = tested on: SR leukemia
[44] = tested on: HL-60(TB) leukemia
[45] = tested on: NCI-H226 lung
[46] = tested on: HT29 colon
[47] = tested on: MDA-N
[48] = tested on: SK-MEL-5 melanoma
[49] = tested on: UO-31 renal
[50] = tested on: NCI-H23 lung
[51] = tested on: SF-295 CNS
[52] = tested on: OVCAR-5 ovarian
[53] = tested on: TK-10 renal
[54] = tested on: EKVX NSCLC
[55] = tested on: MOLT-4 leukemia

Measured: TGI

COCCOCCOCCC(=O)NC1CC2CCC1(C)C2(C)C (stereo not given)
> 100 µM: [1] | [2] | [3] | [4] | [5] | [6] | [7] | [8] | [9] | [10] | [11] | [12] | [13] | [14] | [15] | [16] | [17] | [18] | [19] | [20] | [21] | [22] | [23] | [24] | [25] | [26] | [27] | [28] | [29] | [30] | [31] | [32] | [33] | [34] | [35] | [36] | [37] | [38] | [39] | [40] | [41] | [42] | [43] | [44] | [45] | [46] | [47] | [48] | [49] | [50] | [51] | [52] | [53] | [54] | [55]
